Test results as given in patent US20210337817A1, “COMPOUNDS AND FORMULATIONS FOR PROTECTIVE COATINGS” (Apeel Technology, Inc., priority 2018, published 2021).
“Also recorded” adds a separate entry of the source.

Experiments:
[1] = Contact angle on paraffin wax, direct or primed surface; type: physicochemical; conditions: paraffin wax primed with CA-1G 3 mg/mL in water and dried, then pure water drops
Procedure: For bar 1601, the solvent was pure water. […] The mixture corresponding to bar 1603 was the same as that of bar 1602 but also included 3 mg/mL of CA-1G. For bar 1604, a mixture of CA-1G at a concentration of 3 mg/mL in water was first deposited on the surface of the paraffin wax and then allowed to dry in order to prime the surface. Afterward, the contact angle of water on the primed surface was determined. For bar 1605, a mixture of CA-1G at a concentration of 3 mg/mL in water was first deposited on the surface of the paraffin wax and then allowed to dry in order to prime the surface. Afterward, the contact angle of a mixture of SA-1G and SA-Na at a mass ratio of 95:5 dispersed in water at a concentration of 45 mg/mL on the primed surface was determined.

[2] = tested on: finger limes; test: Average daily mass loss rate of coated finger limes; conditions: coating agent 10 mg/mL in ethanol, 23-27° C., humidity 40-55%, untreated 5.3%
Excerpt: As used herein, the “mass loss rate” refers to the rate at which the product loses mass (e.g. by releasing water and other volatile compounds). The mass loss rate is typically expressed as a percentage of the original mass per unit time (e.g. percent per day).
FIG. 1 is a graph showing average daily mass loss rates for finger limes coated with various mixtures of PA-2G and PA-1G measured over the course of several days. Each bar in the graph represents average daily mass loss rates for a group of 24 finger limes. The finger limes corresponding to bar 102 were untreated. The finger limes corresponding to bar 104 were coated with a coating agent that was substantially pure PA-1G. The finger limes corresponding to bar 106 were coated with a coating agent that was about 75% PA-1G and 25% PA-2G by mass. The finger limes corresponding to bar 108 were coated with a coating agent that was about 50% PA-1G and 50% PA-2G by mass. The finger limes corresponding to bar 110 were coated with a coating agent that was about 25% PA-1G and 75% PA-2G by mass. The finger limes corresponding to bar 112 were coated with a coating agent that was substantially pure PA-2G. The coating agents were each dissolved in ethanol at a concentration of 10 mg/mL to form solutions, and the solutions were applied to the surface of the corresponding finger limes to form the coatings. […]

[3] = tested on: avocados; test: Skin damage of treated avocados (photograph); conditions: 5 mg/mL in water, no long chain fatty acid esters/salts (FIG. 5)
Excerpt: Medium chain fatty acids (e.g., having a carbon chain length in a range of 7 to 13) and/or salts or esters thereof can also be used as coating agents to form coatings over produce or other plant matter or agricultural products using the methods described above.
[…] […] Prior to treatment, the avocado skin was virtually entirely green (not shown).

Structure (SMILES)	average daily mass loss rate [2]	further results
CCCCCCCCCC(=O)OCC(O)CO (stereo not shown) [CA-1G, 2,3-dihydroxypropan-1-yl decanoate]	–	average contact angle of water on primed surface [1]: 24 °
CCCCCCCCCCCCCCCC(=O)OCC(O)CO (stereo not shown) [PA-1G, 2,3-dihydroxypropan-1-yl palmitate]	4.3 % per day	–
CCCCCCCCCCCCCCCC(=O)OC(CO)CO [PA-2G, 1,3-dihydroxypropan-2-yl palmitate]	3.7 % per day	–
CCCCCCCCCCC(=O)OCC(O)CO (stereo not shown) [UA-1G, 2,3-dihydroxypropan-1-yl undecanoate]	–	skin damage of avocados after treatment [3]: high density of black discolored regions; also recorded: extensive skin damage
